{"source": "paper PMC6423129", "about": "“Activity and structural analysis of GRL-117C: a novel small molecule CCR5 inhibitor active against R5-tropic HIV-1s” (Scientific Reports, 2019)", "key": {"R5-HIV-1BaL": {"test_system": "R5-HIV-1BaL", "assay": "p24 assay using PBMCs and R5-HIV-1BaL", "format": "cell-based", "details": "Human immunodeficiency virus 1, BAL, PBMC, 168 h, Ba-L (PBMCs), day 7", "protocol": "(§1) MAGI-CCR5 cells[18] were maintained in DMEM supplemented with 10% fetal calf serum (FCS: Gemini Bio-Products, West Sacramento, CA), 200 μg/ml G418, 100 μg/ml hygromycin B, and 100 μg/ml zeomycin. The Chinese hamster ovary (CHO) cells expressing CCR5[19] were maintained in Ham’s F-12 medium (GIBCO-BRL, Rockville, MD) supplemented with 10% FCS, 50 U/ml penicillin, and 50 μg/ml streptomycin in the presence of 5 μg/ml blasticidin S hydrochloride. TZM-bl cells were obtained from the NIH AIDS Reagent Program, and were cultured in DMEM with 10% FCS. Peripheral blood mononuclear cells (PBMCs) were isolated from buffy coats of HIV-1 seronegative individuals, and were activated with 10 μg/ml phytohemagglutinin (PHA) prior to use[16]. A laboratory wild-type R5-HIV-1 strain (HIV-1Ba-L)[37] was employed for drug susceptibility assays. AD101 (experimental CCR5 inhibitor) and VVC-resistant HIV clones[7],[8] were provided by Dr. John P. Moore of Cornell University for this study. The clones were propagated with activated PBMCs, and were used for the assays. A clinical HIV-1 strain, HIV-1KP-5pc, and an MVC-resistant isolate, HIV-1KP-5mvcR, were prepared and used for antiviral assays, as previously described[10],[38]. The following reagents (plasmids) for T/F HIV-1 viruses[22],[24] were obtained through the NIH AIDS Reagent Program, Division of AIDS, NIAID, NIH: pCH040.c/2625 (cat# 11740), pCH106.c/2633 (cat# 11743), pTHRO.c/2626 (cat# 11745), and pCH058.c/2960 (cat# 11856), from Dr. John Kappes and Dr. Christina Ochsenbauer.\n(§2) Antiviral assays using PHA-PBMCs (p24 assay) were conducted as previously reported[16],[38]. In brief, PHA-PBMCs (1 × 10^6/ml) were exposed to 50 TCID50 of HIV-1Ba-L or drug-resistant HIV-1 infectious clones in the presence or absence of various concentrations of drugs; 10-fold serial dilutions were performed in 96-well microculture plates. The amount of p24 antigens produced by the cells was determined on day 7 in the culture via a commercially available ELISA kit (PerkinElmer). The p24 production level in drug-free control cell cultures was used as the reference. […] Antiviral assays using MAGI-CCR5 cells (MAGI assay) were conducted as previously reported[16],[39]. Single-round virus infection assays using TZM-bl cells infected with R5-HIV-1s (HIV-1YU2, HIV-1KP-5pc, and HIV-1KP-5mvcR)[10] were also conducted as previously described."}, "[1]": {"test_system": "D1/85.16 cl.23 (VVC resistant)", "assay": "microbe, parasite or virus in culture", "format": "cell-based, HIV-1"}, "HIV-1YU2": {"test_system": "HIV-1YU2", "assay": "TZM-bl single-round infection assay, HIV-1YU2", "format": "cell-based", "details": "Human immunodeficiency virus 1, YU2, drug-sensitive, mean ± SD", "protocol": "as §1, §2"}}, "data": [{"smiles": "C=CCN(C(=O)OCc1ccc([N+](=O)[O-])cc1)C1CC2CCC(C1)N2CCC(C)(CN(C)S(=O)(=O)c1ccccc1)c1ccccc1", "note": "(stereo not shown) [GRL-117C]", "values": [{"measurement": "IC50", "setting": "R5-HIV-1BaL", "result": 8.1, "unit": "nM"}, {"measurement": "IC90", "setting": "R5-HIV-1BaL", "result": 48.3, "unit": "nM"}, {"measurement": "IC50", "setting": "[1]; D1/85.16 cl.23 (VVC resistant)", "result": 29.8, "unit": "nM"}, {"measurement": "IC90", "setting": "[1]; Human immunodeficiency virus 1", "result": 415, "unit": "nM"}, {"measurement": "IC50", "setting": "[1]; Human immunodeficiency virus 1, D1/85.16 cl.23 (VVC resistant)", "result": "< 40", "unit": "nM"}, {"measurement": "IC50", "setting": "HIV-1YU2", "result": "68 ± 8.8", "unit": "nM"}, {"measurement": "IC90", "setting": "HIV-1YU2", "result": "> 100", "unit": "nM"}]}]}
